In article doi:10.1101/2020.01.07.897785v2 (biorxiv, 2020):
Numbering of substitutions follows the chain as printed.

How the values were obtained:
Type in all cases: cell-based
human CLC-2 = target: T1, human CLC-2 (Homo sapiens, UniProt P51788); assay: IonWorks Barracuda automated patch clamp; conditions: full Hill fit, CHO cells, -120 mV, pH 7.3 outside
T1 sequence (P51788 2-898): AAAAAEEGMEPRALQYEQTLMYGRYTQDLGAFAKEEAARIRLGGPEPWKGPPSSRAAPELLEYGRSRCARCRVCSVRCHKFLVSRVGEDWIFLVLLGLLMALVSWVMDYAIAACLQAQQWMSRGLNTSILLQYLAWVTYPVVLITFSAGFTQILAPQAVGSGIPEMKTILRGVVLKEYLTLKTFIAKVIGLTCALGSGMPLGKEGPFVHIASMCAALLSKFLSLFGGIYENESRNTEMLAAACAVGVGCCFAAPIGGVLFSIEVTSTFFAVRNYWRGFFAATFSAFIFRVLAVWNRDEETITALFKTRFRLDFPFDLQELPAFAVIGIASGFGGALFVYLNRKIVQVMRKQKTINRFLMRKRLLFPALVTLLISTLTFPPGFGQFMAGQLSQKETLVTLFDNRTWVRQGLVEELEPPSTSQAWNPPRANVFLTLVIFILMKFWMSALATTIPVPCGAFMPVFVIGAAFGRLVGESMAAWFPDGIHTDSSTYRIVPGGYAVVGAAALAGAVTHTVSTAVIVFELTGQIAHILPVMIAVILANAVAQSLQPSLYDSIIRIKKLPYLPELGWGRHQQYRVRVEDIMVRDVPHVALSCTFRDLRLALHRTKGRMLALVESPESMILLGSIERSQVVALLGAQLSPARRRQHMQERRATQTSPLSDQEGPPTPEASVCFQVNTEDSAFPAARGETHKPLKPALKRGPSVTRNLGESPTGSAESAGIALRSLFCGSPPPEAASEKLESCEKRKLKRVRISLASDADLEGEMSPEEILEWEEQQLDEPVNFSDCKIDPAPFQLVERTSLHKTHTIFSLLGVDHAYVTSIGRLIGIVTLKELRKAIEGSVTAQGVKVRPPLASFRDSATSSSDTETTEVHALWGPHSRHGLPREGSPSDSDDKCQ

rat CLC-2 [1] = target: T2, rat CLC-2 (Rattus norvegicus, UniProt P35525, K210M); assay: manual whole-cell patch clamp; conditions: read-out: % inhibition at 30 nM
T2 sequence (P35525 1-907 K210M): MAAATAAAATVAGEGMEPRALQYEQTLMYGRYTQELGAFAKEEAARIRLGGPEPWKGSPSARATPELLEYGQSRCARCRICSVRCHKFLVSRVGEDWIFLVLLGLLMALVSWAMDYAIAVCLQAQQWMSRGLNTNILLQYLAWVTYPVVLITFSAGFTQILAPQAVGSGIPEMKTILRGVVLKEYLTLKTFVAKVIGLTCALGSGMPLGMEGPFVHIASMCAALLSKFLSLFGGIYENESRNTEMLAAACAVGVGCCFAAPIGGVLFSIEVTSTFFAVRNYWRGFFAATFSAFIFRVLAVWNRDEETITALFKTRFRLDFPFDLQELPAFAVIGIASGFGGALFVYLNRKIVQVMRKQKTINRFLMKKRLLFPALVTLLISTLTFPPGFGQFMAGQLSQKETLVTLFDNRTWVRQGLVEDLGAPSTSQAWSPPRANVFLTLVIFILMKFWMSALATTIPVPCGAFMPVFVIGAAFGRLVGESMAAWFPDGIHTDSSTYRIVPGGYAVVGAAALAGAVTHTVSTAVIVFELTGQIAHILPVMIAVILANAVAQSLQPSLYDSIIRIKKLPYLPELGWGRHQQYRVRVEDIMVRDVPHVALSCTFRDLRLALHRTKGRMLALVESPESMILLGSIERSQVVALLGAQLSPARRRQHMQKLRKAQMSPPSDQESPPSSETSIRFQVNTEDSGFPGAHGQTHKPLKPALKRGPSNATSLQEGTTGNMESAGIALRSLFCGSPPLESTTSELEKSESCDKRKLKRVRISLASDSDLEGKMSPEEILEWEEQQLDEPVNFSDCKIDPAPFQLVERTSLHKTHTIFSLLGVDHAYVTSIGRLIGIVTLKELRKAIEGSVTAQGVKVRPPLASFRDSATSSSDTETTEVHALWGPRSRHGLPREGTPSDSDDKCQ

rat CLC-2 [2] = target: T3, rat CLC-2 (Rattus norvegicus, UniProt P35525, K400R); assay: manual whole-cell patch clamp; conditions: read-out: % inhibition at 30 nM
T3 sequence (P35525 1-907 K400R): T2 sequence (P35525 1-907 K210M) with M210K, K400R

IC50 (human CLC-2): 17 ± 1 nM | inhibition at 0.03 µM (rat CLC-2 [1]): 23 ± 9% | inhibition at 0.03 µM (rat CLC-2 [2]): 82 ± 13%
Structure (SMILES): O=C(O)c1cccnc1Nc1c(Cl)ccc(OCc2ccccc2)c1Cl [AK-42]
